Experimental data as given in PMC12257542, “A Radiolabeled Photoswitchable G Protein-Coupled Receptor Antagonist Enlightens Ligand Binding Kinetics Associated with Photoswitching” (Journal of the American Chemical Society, 2025).
Like-named read-outs stand apart in the source and are kept apart here.

How the values were obtained:
[1] = target: T1, mouse H3R (Mus musculus, UniProt P58406); test: [3H]NAMH competition radioligand binding on mH3R-expressing cell homogenates
T1 construct: expressed in transfected cells; host or cells: HEK293T, transient transfection (pcDEF3), cell homogenates
Description: Figure S15. Histamine receptor selectivity binding experiments. Concentration binding curves of trans-3f on cell homogenates expressing H1R (in competition with 4.0-4.8 nM [3H]mepyramine) or H4R (competition with 1.9-2.4 nM [3H]histamine. H2R binding was […]
KAT478). Pooled data of three independent experiments are shown as mean ± SEM.
Figure S16. Radioligand binding experiments with 3f on mH3R-expressing cell homogenates in competition with [3H]NAMH (1.4-1.7 nM). Pooled data of three independent experiments […]
Experimental procedures - Pharmacology […]
were purchased from Promega.
HEK293T cells stably expressing
48 hours post transfection,
[3H]3f binding experiments […]
by sonication (Sonifier Branson).
RT) containing 0.8% ethanol.
The incubation was terminated by
H2R selectivity was assessed
Cells were incubated with ligands

[2] = target: H3R (Homo sapiens, UniProt Q9Y5N1); test: Functional H3R NanoBiT-PKA (cAMP sensor) assay in transiently transfected HEK293T cells; format: cell-based
[3] = Photostationary state area percentages by LC-MS at the isosbestic point; format: physicochemical
[4] = target: T2, H1R (Homo sapiens, UniProt P35367); test: Histamine receptor selectivity binding, [3H]mepyramine competition on cell homogenates expressing H1R; details: trans isomer; at concentrations lower than 1 μM; competition with [3H]mepyramine
T2 construct: HA; expressed in transfected cells; host or cells: HEK293T, transient transfection (pcDEF3), cell homogenates

[5] = Detailed photochemical characterization of 3f (1H NMR, UV-vis switching cycles); format: physicochemical
Description: Figure S10. Photochemical properties of 3f. (A) UV-vis spectra of 25 µM 3f in HBSS buffer containing 1% DMSO in the dark, after illumination to PSScis with 365 ± 10 nm for 2 min and after subsequent illumination to PSStrans with 506 ± 20 nm for 2 min. (B) Representative parts of LC−MS chromatograms of 3f in the dark, after illumination with 365 ± 10 nm for 300 s to reach PSScis and subsequently with 506 ± 20 nm for 300 s to reach PSStrans (full chromatograms […]
(C) Part of 1H NMR spectra of 10 mM 3f in DMSO-d6 (representing the two aromatic signals) in the dark, after illumination with 365 ± 10 nm for 600 s to reach PSScis and subsequently 506 ± 20 nm for 900 s to reach PSStrans (full spectra are shown in Figure S12). (D) Reversible isomerization cycles of 25 µM 3f in HBSS buffer containing 1% DMSO, repeatedly illuminated for 30 s with 365 ± 10 nm to reach PSScis and subsequently for […]
60 s with 506 ± 20 nm to reach PSStrans. […]
states in the 400-550 nm area (Figure S10A). This allows efficient trans-PSScis photoswitching in HBSS buffer using UV light (365 nm) and PSScis-PSStrans back-switching with green light (506 nm). LC-MS analysis (Figure S10B, S11) and, more quantitively, 1H NMR analysis (Figure S10C, S12) reveal high PSScis and PSStrans values for 3f (98% and >95% cis isomer for PSScis by LC-MS and 1H NMR analysis, respectively; 93% and 93% trans isomer for PSStrans by LC-MS and 1H NMR analysis, respectively). These analyses also confirmed that no photodecomposition occurs upon illumination with either 365 or 506 nm. Reversible isomerization cycles could be conducted in HBSS buffer without any photobleaching (Figure […]
S10D). […] Subsequently, the […]
UV−Vis spectra were recorded using a Thermo-scientific Evolution 201 PC spectrophotometer equipped with a thermostated cell holder set at 20 °C. […] The light intensity used for the lambda 10-3 optical filter is 0.93 mW/mm2 using the 360 ± 20 nm filter, 0.79 mW/mm2 for the 434 ± 9 nm filter, 0.77 mW/mm2 for the 494 ± 9 nm filter as measured using a Thorlabs PM16−401 power meter. […]

[6] = Nephelometry (qualitative solubility comparison); format: physicochemical; details: trans state for VUF14862, either state for 3f
[7] = Thermal relaxation of PSS cis states (Arrhenius extrapolation); format: physicochemical; details: approximate; HBSS buffer + 1% DMSO, extrapolated to 20 °C
Description: Experimental procedures – Photochemistry
UV−Vis spectra were recorded using a Thermo-scientific Evolution 201 PC spectrophotometer equipped with a thermostated cell holder set at 20 °C. Fits of UV−vis spectroscopy data were generated using Prism 10.1.0. Illumination for almost all photochemical experiments was executed using a Sutter instruments Lambda LS with a 300 W full-spectrum lamp connected to a Sutter instruments Lambda 10-3 optical filter changer equipped with 360 ± 10 nm, 434 ± 9 nm 494 ± 9 nm, or a Lambda 721 optical beam combiner system equipped with 365 ± 11 nm and 506 ± 14 nm filter. The light intensity used for the lambda 10-3 optical filter is 0.93 mW/mm2 using the 360 ± 20 nm filter, 0.79 mW/mm2 for the 434 ± 9 nm filter, 0.77 mW/mm2 for the 494 ± 9 nm filter as measured using a Thorlabs PM16−401 power meter. The light intensity used for the lambda 721 optical beam combiner is 200 mW using the 365 ± 11 nm filter and 60 mW for the 506 ± 12 nm filter. For photochemical analyses, illuminations were performed in Hellma Suprasil quartz 114QS cuvettes. For the dynamic illuminations, a 4-way cuvette holder (Avantes) was used. The left outlet of the holder is connected to an Avantes AvaLight-DH-S-BAL Deuterium lamp. The right outlet is connected through a fiber to an AvaSpec UV/Vis spectrometer. The lower outlet is connected to a Lambda 721 optical beam combiner system equipped with 365 ± 11 nm and 506 ± 14 nm filter illumination means. The upper outlet is covered with a black cap. The temperature of the solution in the cuvette (20 °C) is controlled by Q-blue Wireless Temperature Control software.
Thermal relaxation experiments and Arrhenius extrapolations were performed according to Priimagi et al20, using a compound concentration of 25 μM in HBSS +1% DMSO and temperatures of 50, 60, and 70 °C. Illuminations for pharmacological experiments were performed in cylindrical clear glass vials with a volume of 4.5 mL. The typical distance between light source and vial or cuvette was 2 cm.

[8] = target: T3, H4R (Homo sapiens, UniProt Q9H3N8); test: Histamine receptor selectivity binding, [3H]histamine competition on cell homogenates expressing H4R; details: trans isomer; at concentrations lower than 1 μM; competition with [3H]histamine
T3 construct: HA; expressed in transfected cells; host or cells: HEK293T, transient transfection (pcDEF3), cell homogenates
T3 sequence (Q9H3N8 whole entry): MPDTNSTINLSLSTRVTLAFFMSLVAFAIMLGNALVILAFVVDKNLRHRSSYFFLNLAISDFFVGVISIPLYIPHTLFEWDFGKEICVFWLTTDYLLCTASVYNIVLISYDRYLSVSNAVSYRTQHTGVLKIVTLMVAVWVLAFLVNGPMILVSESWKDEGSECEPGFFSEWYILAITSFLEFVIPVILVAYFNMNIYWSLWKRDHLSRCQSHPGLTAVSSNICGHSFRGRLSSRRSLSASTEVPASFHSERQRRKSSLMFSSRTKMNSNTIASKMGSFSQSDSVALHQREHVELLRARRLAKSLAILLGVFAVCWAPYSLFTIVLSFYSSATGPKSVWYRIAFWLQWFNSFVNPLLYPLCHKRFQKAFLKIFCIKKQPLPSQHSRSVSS

H3R, sequence (Q9Y5N1 whole entry): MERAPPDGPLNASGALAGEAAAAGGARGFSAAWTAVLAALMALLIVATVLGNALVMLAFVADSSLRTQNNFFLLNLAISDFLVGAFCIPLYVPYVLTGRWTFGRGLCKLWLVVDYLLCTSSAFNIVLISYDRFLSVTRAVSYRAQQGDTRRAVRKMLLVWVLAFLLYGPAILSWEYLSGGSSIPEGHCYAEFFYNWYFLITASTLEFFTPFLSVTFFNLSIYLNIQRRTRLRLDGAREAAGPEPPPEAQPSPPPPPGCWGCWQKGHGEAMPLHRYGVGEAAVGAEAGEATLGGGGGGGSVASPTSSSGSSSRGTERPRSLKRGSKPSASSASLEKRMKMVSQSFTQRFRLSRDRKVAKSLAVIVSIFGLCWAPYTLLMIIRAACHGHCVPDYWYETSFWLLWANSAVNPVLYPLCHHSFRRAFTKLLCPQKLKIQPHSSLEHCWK
T1 sequence (P58406 whole entry): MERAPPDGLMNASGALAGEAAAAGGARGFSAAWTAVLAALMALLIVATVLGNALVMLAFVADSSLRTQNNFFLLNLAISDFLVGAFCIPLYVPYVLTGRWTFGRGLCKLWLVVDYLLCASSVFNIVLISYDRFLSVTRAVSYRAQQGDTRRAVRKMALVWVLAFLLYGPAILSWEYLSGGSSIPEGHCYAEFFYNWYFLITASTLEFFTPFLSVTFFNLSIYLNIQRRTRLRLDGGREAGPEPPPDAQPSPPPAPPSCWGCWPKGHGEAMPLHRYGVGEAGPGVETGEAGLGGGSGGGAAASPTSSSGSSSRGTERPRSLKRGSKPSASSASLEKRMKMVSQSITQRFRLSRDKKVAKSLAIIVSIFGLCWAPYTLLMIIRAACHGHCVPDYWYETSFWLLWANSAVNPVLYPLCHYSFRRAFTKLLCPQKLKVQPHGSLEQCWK
T2 sequence (P35367 whole entry): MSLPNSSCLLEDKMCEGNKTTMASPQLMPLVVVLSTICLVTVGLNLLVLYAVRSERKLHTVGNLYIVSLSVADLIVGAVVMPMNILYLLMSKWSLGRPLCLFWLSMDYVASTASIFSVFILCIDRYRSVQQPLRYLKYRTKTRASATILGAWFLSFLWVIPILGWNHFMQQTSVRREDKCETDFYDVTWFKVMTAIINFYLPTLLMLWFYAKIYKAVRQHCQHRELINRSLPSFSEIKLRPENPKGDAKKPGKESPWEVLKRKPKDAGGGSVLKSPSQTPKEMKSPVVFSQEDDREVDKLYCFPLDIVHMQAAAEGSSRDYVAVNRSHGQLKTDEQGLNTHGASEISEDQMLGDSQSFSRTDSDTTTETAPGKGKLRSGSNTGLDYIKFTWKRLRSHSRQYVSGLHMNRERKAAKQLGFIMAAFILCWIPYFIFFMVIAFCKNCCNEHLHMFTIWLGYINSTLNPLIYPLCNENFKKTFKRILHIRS

## Cc1nn(C2CCN(C)CC2)c(C)c1/N=N/c1ccc(O[C@H]2C[C@H](N3CCCCC3)C2)cc1 [Compound 3f]
[1]; trans isomer, [3H]NAMH (1.4-1.7 nM), read-out: pKi mouse H3R (converted)
  Ki: 1.58 nM
[1]; trans versus PSS cis
  fold shift in affinity upon photoisomerization to PSS cis (mouse H3R): 42 fold
[2]; 100 nM trans-3f preincubated, 10 nM immethridine, dark
  block of the H3R agonist response: approximately 80%
[2]; 100 nM trans-3f, 10 nM immethridine, after 365 nm LED light 10 min, 2 mW
  reversal of the response, % of the maximal agonist response: approximately 80%
[2]; 365 nm 10 min (second cycle), 10 nM immethridine, read-out: pIC50, dynamic trans-3f switching step 4 (converted)
  IC50: 398 nM
[2]; 365 nm 10 min, 10 nM immethridine, read-out: pIC50, dynamic trans-3f switching step 2 (converted)
  IC50: 794 nM
[2]; 500 nm 10 min (second cycle), 10 nM immethridine, read-out: pIC50, dynamic trans-3f switching step 5 (converted)
  IC50: 50.1 nM
[2]; 500 nm 10 min, 10 nM immethridine, read-out: pIC50, dynamic trans-3f switching step 3 (converted)
  IC50: 50.1 nM
[2]; PSS cis (pre-illuminated trans-3f), competition with 10 nM immethridine, 15 min incubation, read-out: pIC50 3f-PSScis (converted)
  IC50: 398 nM
[2]; no irradiation (dark), 10 nM immethridine, read-out: pIC50, dynamic trans-3f switching step 1 (converted)
  IC50: 20 nM
[2]; trans isomer, competition with 10 nM immethridine, 15 min incubation, read-out: pIC50 trans-3f (converted)
  IC50: 31.6 nM
[2]; trans-3f versus 3f-PSS cis
  Fold IC50 shift: 12.6 fold
[3]; after illumination of trans isomer with 365 ± 10 nm at 1 mM in DMSO for 10 min
  PSScis (area %cis): 98 area %
[3]; illumination of PSS cis state with 506 ± 20 nm at 1 mM in DMSO for 10 min
  PSStrans (area %trans): 93 area %
[4]
  binding to H1R: does not bind
[5]; 10 mM in DMSO-d6, 365 ± 10 nm for 600 s
  PSScis (% cis isomer) by 1H NMR: > 95%
[5]; 10 mM in DMSO-d6, 506 ± 20 nm for 900 s
  PSStrans (% trans isomer) by 1H NMR: 93%
[5]; illumination with either 365 or 506 nm, LC-MS and 1H NMR
  photodecomposition upon illumination: no
[6]
  concentrations with tendency to aggregate/precipitate: not observed
[7]
  Half-life (thermal relaxation of PSS cis state): 13 days
[8]
  binding to H4R: does not bind
